25 compounds from US7208517B1, “Endothelin antagonists” (Abbott Labortories, priority 1994, dated 2007) can be followed below.

The experiment addresses T1, ETA Receptor (Rattus norvegicus, UniProt P26684).
T1 construct: endogenous in cells; host or cells: MMQ rat pituitary cells (membranes)
T1 sequence (P26684 21-426): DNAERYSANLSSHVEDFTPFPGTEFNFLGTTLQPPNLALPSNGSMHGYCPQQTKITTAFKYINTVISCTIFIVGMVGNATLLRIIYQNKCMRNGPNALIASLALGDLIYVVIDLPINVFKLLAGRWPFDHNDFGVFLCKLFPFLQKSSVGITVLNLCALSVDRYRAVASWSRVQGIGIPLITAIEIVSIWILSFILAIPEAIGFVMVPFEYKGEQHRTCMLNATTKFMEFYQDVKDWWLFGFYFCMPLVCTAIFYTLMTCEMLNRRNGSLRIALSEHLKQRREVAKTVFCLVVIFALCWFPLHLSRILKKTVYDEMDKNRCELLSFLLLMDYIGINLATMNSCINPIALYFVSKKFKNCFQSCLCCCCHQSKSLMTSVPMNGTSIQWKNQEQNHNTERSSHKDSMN
The experiment is described as follows: [125I]ET-1 binding to membranes from MMQ cells (ETA receptor binding assay, Table 4). The conditions noted are these: test compound at 1 μM; 0.1 nM [125I]ET-1, MMQ cell membranes, 4 hours at 25° C. As for the experimental part: Preparation of Membranes from MMQ Cells:
MMQ [MacLeod/MacQueen/Login cell line (prolactin secreting rat pituitary cells)] cells from 150 mL culture flasks were collected by centrifugation (1000×g for 10 min) and then homogenized in 25 mL of 10 mM Hepes (pH 7.4) containing 0.25 M sucrose and protease inhibitors [3 mM EDTA, 0.1 mM PMSF, and 5 μg/mL Pepstatin A] by a micro ultrasonic cell disrupter (Kontes). The mixture was centrifuged at 1000×g for 10 min. The supernatant was collected and centrifuged at 60,000×g for 60 min. The precipitate was resuspended in 20 mM Tris, pH 7.4 containing the above protease inhibitors and centrifuged again. The final pellet was resuspended in 20 mM Tris, pH 7.4 containing protease inhibitors and stored at −80° C. until used. Protein content was determined by the Bio-Rad dye-binding protein assay.
Binding assays were performed in 96-well microtiter plates pretreated with 0.1% BSA. […] After incubation, unbound ligands were separated from bound ligands by a vacuum filtration method using glass-fiber filter strips in PHD cell harvesters (Cambridge Technology, Inc., MA), followed by washing the filter strips with saline (1 mL) for three times. Nonspecific binding was determined in the presence of 1 μM ET-1.
On to `CCCCN(CCCC)C(=O)C(C)N1CC(c2ccc3c(c2)OCO3)C(C(=O)O)C1c1ccc(OC)cc1` (racemic) [Example 91C, trans,trans-2-(4-Methoxyphenyl)-4-(1,3-benzodioxol-5-yl)-1-((N,N-dibutylamino)carbonyl-1-(RS)-ethyl)pyrrolidine-3-carboxylic acid], for which the “% Inhibition of ETA at 1 μM” value is listed as 91.6%.
On to `COc1ccc(C2C(C(=O)O)C(c3ccc4c(c3)OCO4)CN2CC(=O)N2CC[C@@H]3CCCC[C@H]3C2)cc1` (relative stereo) [Example 293, trans—trans-2-(4-Methoxyphenyl)-4-(1,3-benzodioxol-5-yl)-1-[decahydroisoquinolin-2-carbonylmethyl]-pyrrolidine-3-carboxylic acid], for which the “% Inhibition of ETA at 1 μM” value came out at 89.8%.
For `CCCN(CCN1C[C@H](c2ccc3c(c2)OCO3)[C@@H](C(=O)O)[C@@H]1c1ccc(OC)cc1)S(=O)(=O)CC(C)C` (relative stereo) [Example 303, trans,trans-2-(4-Methoxyphenyl)-4-(1,3-benzodioxol-5-yl)-1-(2-(N-propyl-N-(2-methylpropanesulfonyl)amino)ethyl)-pyrrolidine-3-carboxylic acid], the “% Inhibition of ETA at 1 μM” value worked out at 87.2%.
Take `CCCN(CCN1C[C@H](c2ccc3c(c2)OCO3)[C@@H](C(=O)O)[C@@H]1c1ccc(OC)cc1)S(=O)(=O)N(C)C` (relative stereo) [Example 315, trans,trans-2-(4-Methoxyphenyl)-4-(1,3-benzodioxol-5-yl)-1-(2-(N-propyl-N-dimethylsulfamoylamino)ethyl)-pyrrolidine-3-carboxylic acid]: the “% Inhibition of ETA at 1 μM” value is listed as 82.7%.
To `COc1ccc(C2C(C(=O)O)C(c3ccc4c(c3)OCO4)CN2CC(N)=O)cc1` (stereo not drawn) [Example 2, trans,trans-2-(4-Methoxyphenyl)-4-(1,3-benzodioxol-5-yl)-1-(aminocarbonylmethyl)-pyrrolidine-3-carboxylic acid] belongs 58.4%; to `COc1ccc(C2C(C(=O)O)C(c3ccc4c(c3)OCO4)CN2Cc2ccc(F)cc2)cc1` (stereo not drawn) [Example 3, trans,trans-2-(4-Methoxyphenyl)-4-(1,3-benzodioxol-5-yl)-1-(4-fluorobenzyl)-pyrrolidine-3-carboxylic acid], 42.2%.
`CCOCCN1CC(c2ccc3c(c2)OCO3)C(C(=O)O)C1c1ccc(OC)cc1` (stereo not drawn) [Example 4, trans,trans-2-(4-Methoxyphenyl)-4-(1,3-benzodioxol-5-yl)-1-(2-ethoxyethyl)-pyrrolidine-3-carboxylic acid]: the “% Inhibition of ETA at 1 μM” value was determined as 78.2%.
On to `CCCOCCN1CC(c2ccc3c(c2)OCO3)C(C(=O)O)C1c1ccc(OC)cc1` (stereo not drawn) [Example 5, trans,trans-2-(4-Methoxyphenyl)-4-(1,3-benzodioxol-5-yl)-1-(2-propoxyethyl)-pyrrolidine-3-carboxylic acid], for which the “% Inhibition of ETA at 1 μM” value is 95.1%.
Turning to `COCCOCCN1CC(c2ccc3c(c2)OCO3)C(C(=O)O)C1c1ccc(OC)cc1` (stereo not drawn) [Example 6B, trans,trans-2-(4-Methoxyphenyl)-4-(1,3-benzodioxol-5-yl)-1-[2-(2-methoxyethoxy)ethyl]-pyrrolidine-3-carboxylic acid], the “% Inhibition of ETA at 1 μM” value was 34.9%.
For `COc1ccc(C2C(C(=O)O)C(c3ccc4c(c3)OCO4)CN2CCc2ccccn2)cc1` (stereo not drawn) [Example 7, trans,trans-2-(4-Methoxyphenyl)-4-(1,3-benzodioxol-5-yl)-1-[2-(2-pyridyl)ethyl]-pyrrolidine-3-carboxylic acid], the “% Inhibition of ETA at 1 μM” value came to 63.4%.
On to `CCCCNC(=O)N1CC(c2ccc3c(c2)OCO3)C(C(=O)O)C1c1ccc(OC)cc1` (stereo not drawn) [Example 9, trans,trans-2-(4-Methoxyphenyl)-4-(1,3-benzodioxole-5-yl)-1-(butylaminocarbonyl)-pyrrolidine-3-carboxylic acid], for which the “% Inhibition of ETA at 1 μM” value was 69.2%.
As to `COc1ccc(NC(=O)N2CC(c3ccc4c(c3)OCO4)C(C(=O)O)C2c2ccc(OC)cc2)cc1` (stereo not drawn) [Example 10, trans,trans-2-(4-Methoxyphenyl)-4-(1,3-benzodioxol-5-yl)-1-(4-methoxyphenylaminocarbonyl)-3-pyrrolidine-3-carboxylic acid], the “% Inhibition of ETA at 1 μM” value was found to be 66.1%.
For the compound `COc1ccc(C2C(C(=O)O)C(c3ccc4c(c3)OCO4)CN2CC(=O)N2CCCC2)cc1` (stereo not drawn) [Example 17, trans,trans-2-(4-Methoxyphenyl)-4-(1,3-benzodioxol-5-yl)-1-(pyrrolidin-1-ylcarbonylmethyl)-pyrrolidine-3-carboxylic acid], the “% Inhibition of ETA at 1 μM” value was 73.9%.
On to `COc1ccc(C2C(C(=O)O)C(c3ccc4c(c3)OCO4)CN2CCOc2ccccc2)cc1` (stereo not drawn) [Example 21, trans,trans-2-(4-Methoxyphenyl)-4-(1,3-benzodioxol-5-yl)-1-(2-phenoxyethyl)-pyrrolidine-3-carboxylic acid], for which the “% Inhibition of ETA at 1 μM” value is 56.3%.
To `CCCCOCCN1CC(c2ccc3c(c2)OCO3)C(C(=O)O)C1c1ccc(OC)cc1` (stereo not drawn) [Example 23, trans,trans-2-(4-Methoxyphenyl)-4-(1,3-benzodioxol-5-yl)-1-(2-butoxyethyl)-pyrrolidine-3-carboxylic acid] belongs 85.9%; to `COCCOCCN1CC(c2ccc(OC)cc2)C(C(=O)O)C1c1ccc2c(c1)OCO2` (stereo not drawn) [Example 26, trans,trans-2-(1,3-Benzodioxol-5-yl)-4-(4-methoxyphenyl)-1-[2-(2-methoxyethoxy)ethyl)]-pyrrolidine-3-carboxylic acid], 83.0%; to `CCCCOCCN1CC(c2ccc(OC)cc2)C(C(=O)O)C1c1ccc2c(c1)OCO2` (stereo not drawn) [Example 27, trans,trans-2-(1,3-Benzodioxol-5-yl)-4-(4-methoxyphenyl)-1-(butoxyethyl)-pyrrolidine-3-carboxylic acid], 61.2%.
`CCCN(C)C(=O)CN1CC(c2ccc3c(c2)OCCO3)C(C(=O)O)C1c1ccc(OC)cc1` (stereo not drawn) [Example 29, trans,trans-2-(4-Methoxyphenyl)-4-(1,4-benzodioxan-6-yl)-1-(N-methyl-N-propylaminocarbonylmethyl)-pyrrolidine-3-carboxylic acid]: the “% Inhibition of ETA at 1 μM” value is 85.3%.
The result for `COc1ccc(C2C(C(=O)O)C(c3ccc4c(c3)OCO4)CN2CC(=O)N(CCC(C)C)CCC(C)C)cc1` (stereo not drawn) [Example 34, trans,trans-2-(4-Methoxyphenyl)-4-(1,3-benzodioxol-5-yl)-1-(N,N-diisoamylaminocarbonylmethyl)-pyrrolidine-3carboxylic acid] reads 95.5%.
Consider `CCCCCN(CCCCC)C(=O)CN1CC(c2ccc3c(c2)OCO3)C(C(=O)O)C1c1ccc(OC)cc1` (stereo not drawn) [Example 35, trans,trans-2-(4-Methoxyphenyl)-4-(1,3-benzodioxol-5-yl)-1-(N,N-dipentylaminocarbonylmethyl)-pyrrolidine-3-carboxylic acid], for which the “% Inhibition of ETA at 1 μM” value amounted to 91.8%.
The result for `COCCN(CCOC)C(=O)CN1CC(c2ccc3c(c2)OCO3)C(C(=O)O)C1c1ccc(OC)cc1` (stereo not drawn) [Example 36, trans,trans-2-(4-Methoxyphenyl)-4-(1,3-benzodioxol-5-yl)-1-(N,N-di(2-methoxyethyl)aminocarbonylmethyl)-pyrrolidine-3-carboxylic acid] reads 94.5%.
Regarding `CCCC#CCN1CC(c2ccc3c(c2)OCO3)C(C(=O)O)C1c1ccc(OC)cc1` (stereo not drawn) [Example 37, trans,trans-2-(4-Methoxyphenyl)-4-(1,3-benzodioxol-5-yl)-1-(2-hexynyl)-pyrrolidine-3-carboxylic acid], the “% Inhibition of ETA at 1 μM” value was 47.9%.
The result for `CCCN(CC1CC1)C(=O)CN1CC(c2ccc3c(c2)OCO3)C(C(=O)O)C1c1ccc(OC)cc1` (stereo not drawn) [Example 38, trans,trans-2-(4-Methoxyphenyl)-4-(1,3-benzodioxol-5-yl)-1-(N-cyclopropylmethyl-N-propylaminocarbonylmethyl)-pyrrolidine-3-carboxylic acid] reads 100.0%; that for `CCCCCN(C)C(=O)CN1CC(c2ccc3c(c2)OCO3)C(C(=O)O)C1c1ccc(OC)cc1` (stereo not drawn) [Example 39, trans,trans-2-(4-Methoxyphenyl)-4-(1,3-benzodioxol-5-yl)-1-(N-methyl-N-pentylaminocarbonylmethyl)-pyrrolidine-3-carboxylic acid], 83.6%.
On to `C#CCN(C)C(=O)CN1CC(c2ccc3c(c2)OCO3)C(C(=O)O)C1c1ccc(OC)cc1` (stereo not drawn) [Example 41, trans,trans-2-(4-Methoxyphenyl)-4-(1,3-benzodioxol-5-yl)-1-(N-methyl-N-(2-propynyl)aminocarbonylmethyl)-pyrrolidine-3-carboxylic acid], for which the “% Inhibition of ETA at 1 μM” value was found to be 89.9%.
